From US12291607B2, “Polymer material and method for producing same” (Osaka University, priority 2019, dated 2025)

Experiment: Solubility of host (Ac-CDAA) and guest (ADAA) monomers in third polymerizable monomers
Format: physicochemical
Experimental: The phrase “the host group-containing polymerizable monomer and the guest group-containing polymerizable monomer are dissolved in the third polymerizable monomer” means that the mixture of the host group-containing polymerizable monomer and the guest group-containing polymerizable monomer in a total amount of 1 part by weight or more is dissolved per 100 parts by weight of the third polymerizable monomer at a temperature of 20° C. It is preferable that the mixture of the host group-containing polymerizable monomer and the guest group-containing polymerizable monomer in a total amount of 1 part by weight or more, and particularly preferably 10 parts by weight or more, is dissolved per 100 parts by weight of the third polymerizable monomer at a temperature of 20° C.
(§1) The solubility of Ac-CDAA (host group-containing polymerizable monomer) in the following various monomers (third polymerizable monomers) was as follows: • less than 1 g for 100 g of 2EHA (20° C.) • less than 1 g for 100 g of OctA (octyl acrylate) (20° C.) • 10 g or more for 100 g of 2MEA (20° C.) • 10 g or more for 100 g of 4HBA (20° C.) • 10 g or more for 100 g of DMAA (20° C.)
as §1, with “Further, the” for “The”, “ADAA (guest” for “Ac-CDAA (host”, “OctA” for “OctA (octyl acrylate)”

solubility in 2EHA (for 100 g of 2EHA (20° C.)): less than 1 g | solubility in 2MEA (for 100 g of 2MEA (20° C.)): ≥ 10 g | solubility in 4HBA (for 100 g of 4HBA (20° C.)): ≥ 10 g | solubility in DMAA (for 100 g of DMAA (20° C.)): ≥ 10 g | solubility in OctA (for 100 g of OctA (octyl acrylate) (20° C.)): less than 1 g
SMILES: C=CC(=O)NC12CC3CC(CC(C3)C1)C2 [ADAA, N-(1-adamantyl) acrylamide]
